# “And” between values parts separate entries of the source, which are not always exact repeats. Equal entries are not always repeated. Where two headings read alike, the source gives them in different places.
# What was measured:
# [1] = tested on: SK-MEL-28; experiment: MTT cytotoxicity (IC50), SK-MEL-28; type: cell-based; details: Homo sapiens, 72 h, read-out: IN Vitro IC50 (nm) ske-mel28
# Experimental: (§1) Compound 17932 was tested in four of these cell lines, while the remaining compounds were tested in all of these cell lines. All cell lines were maintained in RPMI-1640 tissue culture medium (TCM, supplemented with antibiotics and 10% fetal bovine serum) and cultured at 37° C. in humidified air containing 5% CO2. To assess the antiproliferative effects of the test compounds, 172 μL of tumor cell suspension (1.45×10^4 cells/ml) were added to each well of a 96-well plate and incubated for 24 h at 37° C. in 5% CO2 in air to allow cells to adhere. Seven 2-fold drug dilutions in TCM/DMSO were performed in triplicate in separate 96-well plates and 28 μL was transferred to the wells containing tumor cells (200 μL final volume/0.1% DMSO). Plates were incubated for 72 h and cell viability was determined by adding 50 μL of warm TCM containing 5 mg/mL MTT (3-[4,5-dimethylthiazol-2-yl]-2,5-diphenyltetrazolium bromide) to each well and incubating for 1 h at 37° C. Plates were processed and the absorbances of the resulting solutions were measured by a plate reader at 570 nm. […] (GraphPad Prism version 4.00 for Windows). Studies were conducted by Taxolog, Inc., Tallahassee, Fla.
# [2] = tested on: human HT29 colon carcinoma xenografts; details: 30 mg/kg i.v. q4d×4; six mice
# [3] = tested on: human BxPC-3 human pancreatic xenograft; type: in vivo
# Experimental: Method: Twenty four (24) hours after a whole body irradiation with a γ-source (7.0 Gy, Co^60, INRA, Dijon, France) 20×10^6 BxPC-3 cells in 200 μl of RPMI 1640 culture medium were subcutaneously injected in the right flank of 8 female Nude rats to generate tumor material. When the tumor size reaches approximately 1,000 mm^3, the tumors were surgically excised for implantation into recipient Nude female rats. Twenty four (24) hours after a whole body irradiation (7.0 Gy, Co^60, INRA, Dijon, France), fresh BxPC-3 tumor fragments were sc implanted in the right flank of 52 Nude female rats (1 fragment/rat) at D0 using surgical pliers and skin was stitched. The antitumor activity study was started at D21 when the mean tumor volume has reached 321.6±131.2 mm^3. Before the start of treatments, 42 tumor bearing rats out of 52 grafted were randomized into 7 groups of 6 animals.
# […]. At 7 mg/kg/inj, only two treatments were performed at D21 and D42 due to severe body weight loss.
# [4] = tested on: TK-10; experiment: MTT cytotoxicity (IC50), TK-10; type: cell-based; details: Homo sapiens, 72 h, read-out: IN Vitro IC50 (nm) TK10
# Experimental: as §1
# [5] = tested on: HT29 human tumor xenografts; experiment: HT29 xenograft study e210, oral and i.v. (Example 25); details: for CR (complete regression) / NTR NTRa/u / NTR NTRm / PR (partial regression) / TFS (tumor-free survivor) / TR (treatment-related death): n=6
# Text: The formulation for oral studies was an ethanol and Cremophor formulation while the formulation for compound 18365 and compound 19244 dosed i.v. was 5% ethanol and 95% Liposyn II 20%.
# [6] = tested on: A549; experiment: MTT cytotoxicity (IC50), A549; type: cell-based; details: Homo sapiens, 72 h, read-out: IN Vitro IC50 (nm) A549
# Experimental: as §1
# [7] = tested on: MX1 human tumor xenografts
# [8] = tested on: DLD-1; experiment: MTT cytotoxicity (IC50), DLD-1; type: cell-based; details: Homo sapiens
# Experimental: as §1
# [9] = tested on: A375; experiment: MTT cytotoxicity (IC50), A375; type: cell-based; details: Homo sapiens, A-375
# Experimental: as §1
# [10] = tested on: human A375 melanoma xenograft; experiment: A375 xenograft study e209 (Example 27); details: 30 mg/kg iv q4d × 4
# Experimental: The endpoint was a tumor volume of 2,000 mm^3 and the study was terminated on Day 56. Efficacy was assessed by tumor growth delay and the number of partial and complete regressions. Animals with a CR that persisted through Day 56 were classified as long-term tumor-free survivors (TFS).
smiles,measurement,setting,value
CCC(=O)O[C@H]1C(=O)[C@@]2(C)C([C@H](OC(=O)c3ccccc3)[C@]3(O)C[C@H](OC(=O)[C@H](O)[C@@H](NC(=O)OC4CCC4)c4cccs4)C(C)=C1C3(C)C)[C@]1(OC(C)=O)CO[C@@H]1C[C@@H]2O (stereo partly shown) [Compound 19244],IC50,[1],2 nM
same,LTTFS,[2],1
same,regression responses,[2],six
same,tolerability of repeated IV treatments,[3]; 5 mg/kg/inj,well tolerated
same,mean doubling time (DT) of tumors,"[3]; 5 mg/kg/inj IV, repeated",19.3 ± 6.5 days
same,"time to reach volume (T to V) of 1,000 mm^3","[3]; 5 mg/kg/inj IV, repeated",46.0 ± 11.6 days
same,MBWC D21-D26,"[3]; 5 mg/kg/inj IV, after the first injection",−15.9±5.6%
same,optimal T/C % value,"[3]; 5 mg/kg/inj IV, at D53",27.7%
same,tolerability of repeated IV treatments,[3]; 7 mg/kg/inj,not tolerated
same,rats out of six alive at the end of the study,[3]; 7 mg/kg/inj IV,two
same,MBWC D21-D26,"[3]; 7 mg/kg/inj IV, after the first treatment",−20.1±5.7%
same,antitumor activity,[3]; repeated IV injections at 5 and 7 mg/kg/inj,marked antitumor activity
same,IC50,[4],0.4 nM
same,% TGD,[5]; 30 mg/kg iv q4d × 4,214.3%
same,BW Nadir,[5]; 30 mg/kg iv q4d × 4,11.1% (16)
same,"MTV (n), Day 60",[5]; 30 mg/kg iv q4d × 4,36.00 (6) mm^3
same,Median TTE,[5]; 30 mg/kg iv q4d × 4,60 days
same,T-C,[5]; 30 mg/kg iv q4d × 4,40.91 days
same,CR (complete regression),[5]; 30 mg/kg iv q4d × 4,1
same,NTR NTRa/u,[5]; 30 mg/kg iv q4d × 4,0
same,NTR NTRm,[5]; 30 mg/kg iv q4d × 4,0
same,PR (partial regression),[5]; 30 mg/kg iv q4d × 4,5
same,TFS (tumor-free survivor),[5]; 30 mg/kg iv q4d × 4,1
same,TR (treatment-related death),[5]; 30 mg/kg iv q4d × 4,0
same,% TGD,[5]; 60 mg/kg po q4d × 4,214.3%
same,BW Nadir,[5]; 60 mg/kg po q4d × 4,−8.5% (16)
same,"MTV (n), Day 60",[5]; 60 mg/kg po q4d × 4,0.25 (6) mm^3
same,Median TTE,[5]; 60 mg/kg po q4d × 4,60 days
same,T-C,[5]; 60 mg/kg po q4d × 4,40.91 days
same,CR (complete regression),[5]; 60 mg/kg po q4d × 4,4
same,NTR NTRa/u,[5]; 60 mg/kg po q4d × 4,0
same,NTR NTRm,[5]; 60 mg/kg po q4d × 4,0
same,PR (partial regression),[5]; 60 mg/kg po q4d × 4,2
same,TFS (tumor-free survivor),[5]; 60 mg/kg po q4d × 4,4
same,TR (treatment-related death),[5]; 60 mg/kg po q4d × 4,0
same,activity in the HT29 xenograft tumor model,[5]; every four day schedule for four doses,oral and IV activity
same,IC50,[6],0.5 nM
same,% TGD,[7]; 7.5 mg/kg iv qd × 1,−3% and −2.64%
same,Median TTE,[7]; 7.5 mg/kg iv qd × 1,16.72 days
same,T-C,[7]; 7.5 mg/kg iv qd × 1,-0.45 days
same,activity (logrank test),[7]; 7.5 mg/kg iv qd × 1,nonsignificant activities
same,CR (complete regression),"[7]; 7.5 mg/kg iv qd × 1, n=5",0
same,NTR (non-treatment-related death),"[7]; 7.5 mg/kg iv qd × 1, n=5",0
same,PR (partial regression),"[7]; 7.5 mg/kg iv qd × 1, n=5",0
same,TFS (tumor-free survivor),"[7]; 7.5 mg/kg iv qd × 1, n=5",0
same,TR (treatment-related death),"[7]; 7.5 mg/kg iv qd × 1, n=5",0
same,% TGD,[7]; 15 mg/kg iv qd × 1,83% and 83.42%
same,Median TTE,[7]; 15 mg/kg iv qd × 1,31.49 days
same,T-C,[7]; 15 mg/kg iv qd × 1,14.32 days
same,activity (logrank test),[7]; 15 mg/kg iv qd × 1,nonsignificant activities
same,CR (complete regression),"[7]; 15 mg/kg iv qd × 1, n=5",0
same,NTR (non-treatment-related death),"[7]; 15 mg/kg iv qd × 1, n=5",0
same,PR (partial regression),"[7]; 15 mg/kg iv qd × 1, n=5",0
same,TFS (tumor-free survivor),"[7]; 15 mg/kg iv qd × 1, n=5",0
same,TR (treatment-related death),"[7]; 15 mg/kg iv qd × 1, n=5",0
same,% TGD,[7]; 30 mg/kg iv qd × 1,235% and 235.44%
same,"MTV (n), Day 60",[7]; 30 mg/kg iv qd × 1,0.00 (2) mm^3
same,Median TTE,[7]; 30 mg/kg iv qd × 1,57.59 days
same,T-C,[7]; 30 mg/kg iv qd × 1,40.42 days
same,activity (logrank test),[7]; 30 mg/kg iv qd × 1,significant activity
same,CR (complete regression),"[7]; 30 mg/kg iv qd × 1, n=5",4
same,NTR (non-treatment-related death),"[7]; 30 mg/kg iv qd × 1, n=5",0
same,PR (partial regression),"[7]; 30 mg/kg iv qd × 1, n=5",1
same,TFS (tumor-free survivor),"[7]; 30 mg/kg iv qd × 1, n=5",2
same,TR (treatment-related death),"[7]; 30 mg/kg iv qd × 1, n=5",0
same,mice survived to D60,"[7]; 30 mg/kg iv qd × 1, n=5",two
same,transient CRs,"[7]; 30 mg/kg iv qd × 1, n=5",2
same,IC50,"[8]; MTT, 72 h, read-out: IN Vitro IC50 (nm) DLD1",1.8 nM
same,IC50,"[8]; Resistance MDR1+, read-out: DLD1 Colon (Table 4, quantity not named; IC50 values as Table 2)",1.8 nM
same,IC50,"[9]; MTT, 72 h, read-out: IN Vitro IC50 (nm) A375",0.6 nM
same,IC50,"[9]; Resistance MRP9, read-out: A375 Melanoma (Table 4, quantity not named; IC50 values as Table 2)",0.5 nM
same,BW Nadir,[10],10.4% (18)
same,"MTV(n), Day 56",[10],0.00 (6) mm^3
same,CR (complete regression),[10]; n=6,6
same,NTR NTRa/u,[10]; n=6,0
same,NTR NTRm,[10]; n=6,0
same,PR (partial regression),[10]; n=6,0
same,TFS (tumor-free survivor),[10]; n=6,6
same,TR (treatment-related death),[10]; n=6,0
same,% TGD,[10]; vehicle EL,210.08%
same,Median TTE,[10]; vehicle EL,56 days
same,T-C,[10]; vehicle EL,37.94 days
